# In a melting point compilation (Tetko et al.; mined from patent text by program, amines drawn as free bases though some values may be those of a salt):
row,Structure (SMILES),melting point
1,COc1ccc(C(=O)c2ccccc2C)cc1C,72 to 73 °C
2,CCCCCCCCCCCCCCCCOCC(CO)Oc1ccon1 (stereo unspecified),50 to 51 °C
3,CC(C)NC(=O)N1CCc2cc(S(=O)(=O)n3cc(-c4ccccc4)[nH]c3=O)ccc21,214 to 216 °C
4,C=CC1(c2ccccc2)OC(C(=O)OC)Oc2ccc(Cl)cc21 (stereo unspecified),78 °C
5,CCOCCOc1ccc(-c2ccc3c(c2)C=C(C(=O)OC)CCN3C=O)cc1,138 to 142 °C
6,O=C1Nc2ccc(Cl)cc2SC1c1ccc(Cl)cc1 (stereo unspecified),230 to 234 °C
7,COc1cc2[nH]ccc2cc1OCCCN1CCC(c2noc3cc(F)ccc23)CC1,186 to 188 °C
8,Cc1cc(C(=O)c2ccc(Cl)cc2)ccc1N,113 to 116 °C
9,Nc1nc(N2CCCC2)c2nc[nH]c2n1,265 °C
10,CCOC(=O)c1conc1-c1ccc(Cl)c(Cl)c1,129 to 130 °C
11,Cc1c(C(=O)O)sc2[nH]c(=O)c(=O)[nH]c12,289 to 294 °C
12,COC(=O)c1ccc(C2=NC(C)(C)Cc3cc(OC)c4c(c32)CC(C)(C)O4)cc1NC(=O)C(F)(F)F,146 to 147 °C
13,Cc1cc(C)cc(C=CC#N)c1,67 to 68 °C
14,CCOC(=O)C=Cc1cc2cc(OC)ccc2nc1Cl,113 to 114 °C
15,O=C(O)c1cccc(OCc2cc(Cl)cc(Cl)c2)c1OCc1cc(Cl)cc(Cl)c1,150 to 151 °C
16,O=C1OC(Cl)(Cl)c2c(Cl)c(Cl)c(Cl)c(Cl)c21,136 to 138 °C
17,N#CC(C#N)CC(CC(F)(F)C(F)(F)C(F)(F)C(F)F)SC(F)(F)F (stereo unspecified),72 to 74 °C
18,COc1ccccc1Cc1ccc(N)c(C#N)c1,77.5 to 78.5 °C
19,CNc1nc2ccccc2c2c1ncn2C,216 to 218 °C
20,COc1ccc(C=C(C#N)c2ccncc2)cc1OC1CCCC1,125 to 127 °C

row,Structure (SMILES),melting point
1,CS(=O)(=O)C(=[N+]=[N-])C(=O)CCc1ccccc1,52.5 to 54 °C
2,O=C(O)c1ccc(OCCCc2ccc(OCCCC3CCCCC3)cc2)c(C(=O)NC2CCCC(C(=O)O)C2)c1 (stereo unspecified),160 °C
3,CN1C(=O)c2[nH]c3ccccc3c2Oc2ccccc21,247 to 248 °C
4,Cn1c2c(cnc3ccccc32)c(=O)n1-c1ccc(Cl)cc1,158 to 161 °C
5,CN(C)CCCCCCNC(=O)c1ccc(-c2nnc(CSCCOc3ccccc3)o2)cc1,86 to 93 °C
6,COc1cccc2c1nc(C(F)F)n2-c1nc(Nc2ccc(N(C)C)nc2)nc(N2CCOCC2)n1,136 to 137 °C
7,COC1(OC)SC=C(C)NC1=O,86 to 88 °C
8,Cc1cccc(-c2nnn[nH]2)c1,150 to 152 °C
9,Nc1nc2c(Cl)ncnc2n1C1OC(CO)C(O)C1O (stereo unspecified),214 to 217 °C
10,NC(=NC(=O)Cn1c(Cl)ccc1Cl)NC(=O)c1ccc(Cl)cc1,198 to 200 °C
11,Cc1nnc(C=O)n1-c1ccc(Cl)cc1C(=O)c1ccccc1,105 to 138 °C
12,Cc1c(C(=O)N[C@H](C)[C@](O)(Cn2cncn2)c2ccc(F)cc2F)cnn1-c1ccc(Br)cc1,153 to 154 °C
13,O=C(O)CCCCCCCCC=Cc1ccco1,45 to 46 °C
14,CC1(C)CC(c2ccc(F)cc2)=C(/C=C/[C@H]2C[C@H](O)CC(=O)O2)C(C)(C)C1 (relative stereo),121 to 122 °C
15,CC(c1ccccc1)c1ccc(-c2cnn3c(O)ncnc23)cc1 (stereo unspecified),291 to 293 °C
16,COc1ccc(Cc2c(N)nc(N)nc2O)cc1OC,268 to 270 °C
17,Cc1cc(N2CCN(CC(=O)c3ccc(NS(C)(=O)=O)cc3)CC2)ccn1,93 to 94 °C
18,O=C(O)/C=C/c1cc(OC2CCOCC2)nn1Cc1ccc(Cl)cc1Cl,191 to 192 °C
19,CCn1nc(C)c2nc(C)nc(N3CC3)c21,66 to 69 °C
20,NS(=O)(=O)OCCOc1ccc(Br)cc1,134 to 137 °C

row,Structure (SMILES),melting point
1,CN1CCN(C2=Nc3cc(F)ccc3Nc3nn(C)nc32)CC1,195 to 197 °C
2,Cc1cc(Nc2ccnc(Nc3ccc(S(=O)(=O)N(C)C4CCN(C)CC4)cc3)n2)ccc1F,110 to 120 °C
3,CC(C)c1ccc(C=CC(=O)c2ccc(O)c(CC(=O)O)c2)cc1,228 °C
4,CN(C)c1ncc([N+](=O)[O-])cc1Cl,111 to 113 °C
5,N#Cc1ccc(CC(=O)c2c(O)c3cccnc3n(-c3ccccc3)c2=O)cc1,227 to 230 °C
6,CCCCCCCCCCCCOc1ccc(-c2ncc(-c3ccc(O)c(F)c3F)cn2)cn1,111 to 118 °C
7,CCCc1c(-c2ccncc2)[nH]c(-c2ccncc2)c1C(=O)OCC,209 to 211 °C
8,O=C(O)C1(N(Cc2noc(=O)[nH]2)S(=O)(=O)c2ccc(-c3ccc(Cl)cc3)cc2)CC1c1ccccc1 (stereo unspecified),168 to 172 °C
9,Cn1c(=O)c2[nH]c(C=Cc3cccc([N+](=O)[O-])c3)nc2n(C)c1=O,> 300 °C
10,COc1cccc(N)c1C#N,143 to 146 °C
11,COc1cc(C2=NNC(=O)Cc3cc4c(cc32)OCO4)ccc1[N+](=O)[O-],267 to 269 °C
12,O=C(CCCCCc1cccc2cncn12)NO,138 to 140 °C
13,CCOC(=O)C1=C(C)N(C(=O)c2ccccc2)C(C)=C(C(=O)OCC)C1c1cccc([N+](=O)[O-])c1,98 to 101 °C
14,CC(=C(C#N)C(=O)c1ccccc1)N(C)C,105 to 106 °C
15,N=C(N)c1cccc(CN(C(=O)Nc2ccc(-c3ccccc3S(N)(=O)=O)cc2)c2ccccc2)c1,201 to 202 °C
16,CC1=C2C=c3c(cnn3CC(C)N=[N+]=[N-])=C2CC=C1 (racemic),70 to 72 °C
17,Nc1ccc(CCC(=O)Nc2ccc(Cl)cc2Cl)cc1[N+](=O)[O-],164 to 165 °C
18,CN(C)c1cc2c(cc1OCc1ccccc1)CCC1C2CCC2(C)C(=O)CCC12 (stereo unspecified),165 to 166 °C
19,Cn1nc(C(=O)NCc2ccc(Cl)cc2)c(=O)c2cc(C#CCO)cnc21,201 to 206 °C
20,CSc1cc2c(cc1SC)C(=O)c1cc3ccccc3cc1C2=O,> 260 °C

# Continued, values first:
row,melting point,Structure (SMILES)
1,160 to 162 °C,CC[C@H](NC(=O)OCC1c2ccccc2-c2ccccc21)[C@@H](O)C(=O)O
2,122 to 126 °C,CCN(CC)CCCOc1ccc(C(=O)c2oc3ccccc3c2-c2ccccc2)cc1
3,128 to 129 °C,Nc1c(CCO)cccc1C(O)c1ccc(Br)cc1 (stereo unspecified)
4,120 to 122 °C,CC(C)C(=O)N[C@@H](CS)C(=O)NCCSC(=O)C(C)(C)C
5,160 to 161 °C,CC(c1nnnn1C)C(O)(c1ccc(F)cc1)c1ccc(F)cc1 (stereo unspecified)
6,189 to 191 °C,COc1ccc(S(=O)(=O)N2Cc3ccccc3N(C(=O)c3ccc(OC)cc3OC)CC2C(=O)NO)cc1 (stereo unspecified)
7,137 °C,CN(CCCCNC(=NCCSCc1csc(NC(=N)N)n1)NC#N)CCN(Cc1ccc(F)cc1)c1ccccn1
8,189 to 193 °C,COc1ccc2c(c1)Cc1c-2[nH]c2ccc(OCc3ccccc3)cc12
9,115 to 116 °C,Cc1sc(-c2ccco2)nc1COc1ccc(CCl)cc1
10,88 °C,COc1ccc2c(C(=O)CC(C)=O)c(OC)ccc2c1
11,79 to 81 °C,N#CC(CCC1C2CCN1CC2)(c1ccccc1)c1ccccc1 (stereo unspecified)
12,167 to 168 °C,Oc1cccc2c1sc1ccccc12
13,98 to 99 °C,O=S(=O)(CCc1ccccc1)CCc1ccccc1
14,74 to 75 °C,COCOCc1nc(-c2ccccc2)oc1COc1ccc(OCc2nc(-c3ccccc3)oc2C)cc1
15,197 °C,O=c1ncc(Cl)cn1Cc1ccccc1
16,69 to 70 °C,COc1cccc(CN(C)C)c1SCc1ccccc1
17,110 °C,CC(C)c1cc2c(c(O)c1-c1ccc3c(c1)CCCC3)CCCC2
18,131 to 132 °C,COc1cc(COc2nn(-c3ccc(C(F)(F)F)cc3)cc2/C=C/C(=O)OCOC(=O)C(C)(C)C)ccc1OCc1nc(-c2ccccc2)oc1C
19,124 to 126 °C,COc1cc2[nH]c(SCc3nccc(N4CCOCC4)c3F)nc2cc1C
20,227 to 229 °C,CCn1c(=O)sc2cc(N3C[C@H](C(=O)NC)OC3=O)ccc21
21,233 to 235 °C,CC(C)c1ccc(-c2ccc(-c3cccc(C(=O)O)c3)s2)cc1

row,melting point,Structure (SMILES)
1,144 to 147 °C,CCCC1=C(C(=O)OCC)C(c2ccccc2Cl)c2cn(C(=O)OC(C)(C)C)nc2N1 (stereo unspecified)
2,200 to 203 °C,O=C(NC1=NCCCC1)Nc1ccc(Cl)cc1
3,147 to 148 °C,O=C(O)CCCc1cc(C(c2cc(F)ccc2F)S(=O)(=O)c2ccc(Cl)cc2)c(Cl)cn1 (stereo unspecified)
4,286 to 288 °C,COc1ccc(Nc2nc3cc4c(cc3[nH]2)NC(=O)C4(C)C)cc1
5,205 to 206 °C,CN(C)C(=O)COC(=O)COc1ccc(C(=O)Nc2ccccc2Sc2ccccc2-c2nnn[nH]2)cc1
6,265 °C,Cc1c(C(=O)Nc2cccc(C#N)c2N2CCC(N3CCOCC3)CC2)cnn1-c1ccc([N+](=O)[O-])cc1
7,> 300 °C,CNc1cc2c(cn1)c(=O)n1nccc1n2C
8,169 to 170 °C,N#Cc1ccc(N(Cc2ccc(O)cc2)n2cncn2)cc1-c1ccccc1
9,36 to 37 °C,COc1cnccc1C(C)=O
10,210 to 211 °C,CN(C)CCc1ccc(NC=O)c2[nH]ncc12
11,119 to 132 °C,CCc1nc2c(C)cc(C)nc2n1Cc1ccc(C(=C(Cl)c2nnn[nH]2)c2ccccc2)cc1
12,99 to 101 °C,Clc1ccccc1Oc1cnccc1N1CCNCC1
13,137 to 139 °C,O=C(NC1CCCCC1)OC1CCN(C(=O)Oc2ccc(Oc3ccccc3)cc2)CC1
14,135 to 137 °C,CCOC(=O)c1ccc(NC(=O)CC(CNS(=O)(=O)c2ccc(C)cc2)c2ccccc2)cc1 (stereo unspecified)
15,228 to 230 °C,Cc1c(-c2ccc(O)cc2)sc(C=O)c1-c1ccc(O)c(C=O)c1
16,154 to 156 °C,O=c1nc(-c2c(F)cccc2F)oc(=O)n1-c1cc(Cl)c(Oc2ncc(OC(F)F)cc2Cl)c(Cl)c1
17,> 250 °C,O=C(O)c1cc2nc(-c3ccccc3)nn2cc1F
18,194 to 195 °C,CS(=O)(=O)NCc1cc(-c2ccccc2)c2c(n1)OCCN(Cc1cc(C(F)(F)F)cc(C(F)(F)F)c1)C2=O
19,108 to 111 °C,COc1ccc(N2C=CN(CCC(C)(C)NCC(O)c3ccc(OCc4ccccc4)c(CO)c3)C2)cc1 (stereo unspecified)
20,88 to 90 °C,COc1cc(C(F)(F)F)nc(S(C)(=O)=O)n1
